Earlier results, collected in publication PMC10447463, “Data-mining unveils structure–property–activity correlation of viral infectivity enhancing self-assembling peptides” (Nature Communications, 2023).

System: HIV-1 infection of TZM-bl cells
Settings: literature report; cited from earlier work
Text: page 30: 8. Amyloid peptides from functional and pathogenic contexts Table S1 Selected amyloid peptides from protein data bases and literature reports. Note, that the peptide KLVFFAK, derived from amyloid ab was reported for retroviral transduction enhancement, however with very low efficiencies (> 4 fold compared to virus only). 33 ”+” indicates reported ThT fluorescence (ThT) or fibril formation, “0” indicates no data reported. All peptides were synthesized via Fmoc SPPS protocol and purchased . w ≥ . sequence ThT fibril pI charge hfauchere derived from original context ref. IKFLSVN + + 9.7 ...

KLVFFAK [reference compound]
retroviral transduction enhancement compared to virus only: > 4 fold
